In patent publication US20200323954A1, “METHODS AND COMPOSITIONS FOR REDUCING GUT ISCHEMIA/REPERFUSION-INDUCED INJURY” (PanTheryx, Inc., priority 2019, published 2020):
Entries after “also recorded” stand apart in the source; their conditions may differ.

Columns and labels:
NSAID-induced apoptosis = settings: cited from earlier work
[1] = system: 90% small intestine (SI) tissue (non-clamped segment of bowel); assay: Gut I/R model, non-clamped 90% SI site; settings: 90% SI non-clamped, mean ± SEM
[2] = system: polarised Caco-2 monolayers; assay: Permeation of horseradish peroxidase (HRP) through the monolayer after H/R; type: cell-based, human
Method: (§1) Hypoxia (Ischemia)/Normoxia (Reperfusion) (H/R) protocols for in vitro studies: For all experiments AGS, Caco-2 and RIE1 cells were set up in plates as described in specific methods. Cells were used at 70-80% confluence for cell injury/death assessment and as confluent monolayers for permeability studies. To induce “ischemia”, cells were placed in a hypoxic incubator (2% 02) for specified time and to mimic reperfusion, cells were placed back in a normoxic (21% 02) incubator for specified time. All treatments were duplicated in a second set of identical plates under normoxic conditions throughout the same test period as controls. To determine optimum conditions for the in vitro studies, pilot studies were performed.
The effect of […] PSTI pre-treatment on transepithelial permeability induced by 1 hour of hypoxia followed by 24 hours of normoxia was examined using Caco-2, human polarizing colonic adenocarcinoma cells utilizing two different previously published methods according to Davison et al., 2016, Am J Nutr 2016; 104:526-536. One method determined change in transepithelial electrical resistance (TEER) and the other method analyzed the passage of horseradish peroxidase (HRP) across the epithelial layer. HRP (type II) is a non-digestible macromolecular protein (MW=44 kD) and has previously been used as a tracer in evaluation of epithelial permeability. Each monolayer had TEER and HRP permeability assessed at baseline, at the end of 1 h incubation in an hypoxic (ischemic) chamber and at the end of a 24 h reoxygenation (reperfusion) period. Measurements were taken in triplicate from 4 wells per treatment. Results are expressed as mean+/−SEM.

[3] = system: lipopolysaccharide-stimulated dendritic cells; settings: lipopolysaccharide-stimulated dendritic cells in vitro; cited from earlier work
lung tissue = assay: Gut I/R model, lung tissue
AGS cells [4] = assay: Cell viability (MTT) assay after hypoxia/reperfusion (H/R); type: cell-based, human; settings: for cell viability in the MTT assay: 4 h hypoxia + 24 h reperfusion
Method: as §1
Cell viability (MTT) assay: Cell viability following H/R was assessed using an MTT assay (3-(4,5-dimethylthiazol-2-yl)-2,5-diphenyltetrazolium bromide) according to Marshall et al., Growth Regul. 1995; 5(2):69-84. The principal of the assay is that viable cells contain NAD(P)H-dependent oxidoreductase enzymes which reduce the MTT reagent to formazan which can be measured spectrophotometrically. At the end of the H/R period, 5 mg/ml MTT in PBS was added to each well of the 96 well plates and incubated at 37° C. for 4 hours, the medium was replaced with 150 μl of DMSO and the absorbance measured at 490 nm. Cell viability was expressed as percentage of the equivalent normoxic control, all results are expressed as mean+/−SEM of six wells.
(§2) Example 1A: Dose response study: To examine the effect of PSTI on H/R-induced cell injury in vitro, cells were set up in 96 well plates and pre-incubated in SFM containing glucose, with or without 5, 10 or 15 μg/ml PSTI for 1 hour (i.e. PSTI pre-treatment). These concentrations of PSTI were chosen based on previous studies examining cell migration (Marchbank et al., 2007, Am J Pathol 171(5):1462-73). The medium was replaced with SFM without glucose and placed in the hypoxia incubator for 4 hours. At the end of the hypoxia period, medium was replaced with SFM containing glucose for 24 hours at normoxia for the reperfusion period.
Example 1B: Efficacy of PSTI given pre-, during- or post-hypoxic period. The potential benefits of giving PSTI prior to, during or following the hypoxic period were compared. Cells were either pre-treated with 10 μg/ml PSTI for the 1 hour before hypoxia (Pre), treated with 10 μg/ml PSTI during hypoxia (During) or treated with 10 μg/ml PSTI during the reperfusion stage (Post). Cell Viability (MTT assay) and cell damage (LDH assay) were assessed. Cells were pre-treated with 10 μg/ml PSTI for the 1 hour before hypoxia (Pre), at the time of the start of hypoxic period (During), or added at the start of the reperfusion stage (Post). Cell Viability (MTT assay) and cell damage (LDH assay) were assessed.

AGS cells [5] = assay: Lactate dehydrogenase (LDH) cell damage assay after H/R; type: cell-based, human
Method: as §1
Lactate dehydrogenase (LDH) assay: Cell damage was assessed using the activity of LDH released into the cell culture medium. LDH is a cytosolic enzyme present in many different cell types. Plasma membrane damage releases LDH into the cell culture media. At the end of the H/R period, supernatant was collected from all wells and LDH activity determined using a Pierce LDH Cytotoxicity Assay Kit (Thermo Fisher Scientific, Hemel Hempstead, UK) following manufacturer's instructions. Results are expressed as LDH activity and presented as mean+/−SEM of six wells.
as §2, with “At the end of the hypoxia period, medium was replaced with SFM containing glucose for 24 hours at normoxia for the reperfusion period.” left out
Example 1B: Efficacy of PSTI given pre-, during- or post-hypoxic period. […] Cell Viability (MTT assay) and cell damage (LDH assay) were assessed. […] Cell Viability (MTT assay) and cell damage (LDH assay) were assessed.

[6] = system: NSAID-induced gastric injury; settings: rats, PSTI administration; cited from earlier work
[7] = system: human colonic carcinoma HT29 cells; settings: HT29 cells in vitro; cited from earlier work
[8] = IR + PSTI 20 μg/kg ip, mean ± SEM
[9] = PSTI 20 μg/kg ip, vs I/R without PSTI
[10] = normoxia, PSTI 10 microgram per ml

pancreatic secretory trypsin inhibitor (DSLGREAKCYNELNGCTKIYDPVCGTDGNTYPNECVLCFENRKRQTSILIQKSGPC; listed as Homo sapiens) [PSTI]
NSAID-induced apoptosis (NSAID-induced apoptosis): reduces NSAID-induced apoptosis
Histological score (0-5) ([1]; I/R + PSTI 20 μg/kg ip 1 h before clamping, 30 min ischemia/3 h reperfusion): 0.142 ± 0.142
Bcl2 ([1]; I/R + PSTI 20 μg/kg ip): 5.55 ± 1.00 pg/μg total protein
Caspase 3 ([1]; I/R + PSTI 20 μg/kg ip): 0.021 ± 0.007 Change in absorbance
Caspase 9 ([1]; I/R + PSTI 20 μg/kg ip): 0.014 ± 0.00052 Change in absorbance
Claudin 1 ([1]; I/R + PSTI 20 μg/kg ip): 0.152 ± 0.014 pg/μg total protein
ZO1 ([1]; I/R + PSTI 20 μg/kg ip): 0.17 ± 0.008 pg/μg total protein
truncation of the increase in HRP permeability ([2]; Caco-2, end of the 1 h hypoxic period): about 54%
truncation of the increase in HRP permeability ([2]; Caco-2, final H/R time point (1 h hypoxia + 24 h)): 37%
truncation of the 300% increase in transepithelial permeability (horse radish peroxidase translocation) ([2]; Caco-2 monolayers, hypoxia/reperfusion 1 h+24 h, p<0.01): 50%
I/R-induced change in HRP permeability, medium alone vs PSTI ([2]; PSTI added to the medium prior to I/R): significantly greater increases in permeability compared to those that had PSTI added
HRP permeation under normoxic conditions ([2]; normoxia): no effect on TEER or HRP permeation
cytokine release of TNFα and IL-12 [3]: reduced cytokine release of TNFα and IL-12
Caspase 3 (lung tissue; IR + PSTI 20 μg/kg ip 1 h before clamping, mean ± SEM): 0.092 ± 0.022 Change in absorbance
Baxα (lung tissue; [8]): 3.74 ± 0.21 pg/μg total protein
Bcl2 (lung tissue; [8]): 45.66 ± 3.79 pg/μg total protein
Caspase 9 (lung tissue; [8]): 0.063 ± 0.004 Change in absorbance
Claudin 1 (lung tissue; [8]): 9.63 ± 0.40 pg/μg total protein
ZO1 (lung tissue; [8]): 8.15 ± 0.80 pg/μg total protein
histological damage of lung (lung tissue; PSTI 20 μg/kg ip 1 h before clamping, vs I/R without PSTI): markedly truncated these effects; also recorded: protective effects; also recorded: markedly truncated the adverse effects; also recorded: significantly reduced histological scoring of lung damage
MDA levels (lung tissue; [9]): this increase was truncated; also recorded: significantly reduced MDA levels
MPO levels (neutrophil infiltration) (lung tissue; [9]): reduced neutrophil infiltration of the lungs; also recorded: significantly reducing these changes; also recorded: significantly reduced MPO levels
cell viability in the MTT assay (AGS cells [4]; AGS, PSTI 10 μg/ml 1 h before hypoxia (Pre), % of normoxic control, H/R without PSTI 52±2%): 78±2%
cell viability in the MTT assay (AGS cells [4]; AGS, PSTI 10 μg/ml during hypoxia period): 66±3%
cell viability in the MTT assay (AGS cells [4]; AGS, PSTI 10 μg/ml during the post-hypoxia period): 49±1%
improvement of survival after H/R (AGS cells [4]; AGS, RIE1 and Caco-2 cells, hypoxia/reperfusion 4 h+24 h, PSTI 10 μg/ml prior or during hypoxic period, p<0.01): 50%
optimum concentration for reducing cell death (MTT and LDH assays) (AGS cells [4]; PSTI 5, 10 or 15 μg/ml given 1 h prior to H/R): 10 µg/mL
effect on cell viability / cell death after H/R vs serum free medium (AGS cells [4]; PSTI added before (or during) H/R): reduced hypoxia-reoxygenation-induced cell death; also recorded: significantly increased % cell viability
cell viability of cells not exposed to H/R (AGS cells [4]; [10]): no change in viability or LDH; also recorded: no change in viability
reduction of the rise in LDH (AGS cells [5]; AGS, 4 h hypoxia + 24 h reperfusion, PSTI 10 μg/ml 1 h before hypoxia): 37%±2%
effect on cell damage (LDH activity) after H/R vs serum free medium (AGS cells [5]; PSTI added before H/R): significantly decreased cell damage
LDH of cells not exposed to H/R (AGS cells [5]; [10]): no change in viability or LDH; also recorded: no change in % LDH levels
NSAID-induced gastric injury [6]: reduces NSAID-induced gastric injury
cell migration [7]: stimulate cell migration
proliferation [7]: not proliferation
